Reference: ChEMBL document CHEMBL1127001, “Novel sigma receptor ligands 2” (Bioorg Med Chem Lett, 1993)

Legend:
[1] = biological target: T1, Sigma non-opioid intracellular receptor 1 (Homo sapiens, UniProt Q99720); assay: Binding affinity for sigma receptor using [3H]-(+)-SKF- 10,047
D(2) dopamine receptor = D(2) dopamine receptor (Homo sapiens, UniProt P14416); assay: Binding affinity towards dopamine D2 receptor using radiolabeled ligand [3H]spiperone
[2] = biological target: T1, Sigma non-opioid intracellular receptor 1; assay: Binding affinity towards sigma receptor using radiolabeled ligand [3H]-(+)-SKF- 10,047 was determined
Glutamate NMDA receptor = assay: Binding affinity towards PCP receptor in rat brain membrane using radiolabeled ligand [3H]TCP (1-[1-(2-thienyl)cyclohexyl]piperidine) was determined; type: cell membranes
[3] = Binding affinity towards dopamine D2 receptor using radiolabeled ligand [3H]spiperone

T1 sequence (Q99720 whole entry): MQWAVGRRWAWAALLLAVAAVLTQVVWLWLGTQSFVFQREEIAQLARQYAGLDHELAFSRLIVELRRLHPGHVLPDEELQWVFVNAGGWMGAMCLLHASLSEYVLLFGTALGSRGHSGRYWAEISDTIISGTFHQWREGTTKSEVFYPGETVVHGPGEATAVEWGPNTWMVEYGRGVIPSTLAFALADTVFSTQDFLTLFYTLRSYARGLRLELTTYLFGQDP
Sequence of D(2) dopamine receptor (P14416 whole entry): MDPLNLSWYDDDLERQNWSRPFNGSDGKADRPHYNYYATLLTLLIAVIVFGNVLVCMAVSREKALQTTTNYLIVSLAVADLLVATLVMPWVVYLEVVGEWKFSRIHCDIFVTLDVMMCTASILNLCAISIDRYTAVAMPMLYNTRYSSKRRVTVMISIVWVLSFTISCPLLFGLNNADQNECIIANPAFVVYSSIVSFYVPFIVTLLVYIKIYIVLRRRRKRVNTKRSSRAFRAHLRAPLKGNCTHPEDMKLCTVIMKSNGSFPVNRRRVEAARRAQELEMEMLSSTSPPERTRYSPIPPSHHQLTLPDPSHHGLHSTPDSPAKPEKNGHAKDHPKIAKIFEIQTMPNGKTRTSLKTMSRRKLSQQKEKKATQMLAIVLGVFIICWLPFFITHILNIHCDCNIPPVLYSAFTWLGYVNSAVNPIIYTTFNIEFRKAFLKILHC

COc1ccc(C2=COC3(CCN(CCc4ccccc4)CC3)CC2=O)cc1
Ki [1]: 30 nM | Ki (D(2) dopamine receptor): 1500 nM

O=C1CC2(CCN(CCc3ccccc3)CC2)OC=C1c1ccccc1
Ki [2]: 5 nM | Ki (Glutamate NMDA receptor): > 10000 nM | Ki (D(2) dopamine receptor): 2030 nM

CN1CCC2(CC1)CC(=O)C(c1ccc(F)cc1)=CO2
Ki [1]: 7300 nM | Ki (D(2) dopamine receptor): > 100000 nM

CCN(CC)CCCC1(C)CC(=O)C(c2ccccc2)=CO1 (single isomer, unassigned; (-))
Ki [2]: 34 nM | Ki (Glutamate NMDA receptor): > 10000 nM | Ki (D(2) dopamine receptor): > 10000 nM

O=C1C(c2ccc(F)cc2)COC12CCN(Cc1ccccc1)CC2 (single isomer, unassigned; (-))
Ki (Glutamate NMDA receptor): 2230 nM | Ki [3]: 47 nM

O=C1CC2(CCN(CCc3ccccc3)CC2)OCC1c1ccc(F)cc1 (stereo not drawn)
Ki (Glutamate NMDA receptor): 14000 nM | Ki (D(2) dopamine receptor): 1530 nM

O=C1CC2(CCCN(Cc3ccccc3)C2)OC=C1c1ccccc1 (single isomer, unassigned; (-))
Ki [1]: 13 nM

O=C1C=C(c2ccco2)OC2(CCN(CCc3ccccc3)CC2)C1
Ki [1]: 70 nM | Ki (D(2) dopamine receptor): 7600 nM

O=C1C=C(c2ccccc2)OC2(CCN(CCc3ccccc3)CC2)C1
Ki [1]: 10 nM | Ki (D(2) dopamine receptor): 4200 nM

O=C1C[C@]2(CC[C@@H](OCc3ccccc3)CC2)OC=C1c1ccccc1
Ki (Glutamate NMDA receptor): > 10000 nM | Ki (D(2) dopamine receptor): > 10000 nM

O=C1CC2(CCN(CCc3ccccc3)CC2)OC=C1c1cccs1
Ki [1]: 7 nM | Ki (D(2) dopamine receptor): 1080 nM

CN1C2CCC1CC1(CC(=O)C(c3ccccc3)=CO1)C2 (single isomer, unassigned; (-))
Ki [1]: 1830 nM | Ki (D(2) dopamine receptor): > 10000 nM

O=C1CC2(CN3CCC2CC3)OC=C1c1ccccc1 (stereo not drawn)
Ki [1]: 1590 nM | Ki (D(2) dopamine receptor): > 10000 nM

CN1CCC2(CC1)CC(=O)C(c1ccccc1)=CO2
Ki [1]: 6880 nM | Ki (D(2) dopamine receptor): > 100000 nM

O=C1CC2(CCN(Cc3ccccc3)CC2)OC=C1c1ccccc1
Ki (D(2) dopamine receptor): 1460 nM

O=C1CC2(CCN(CCc3ccccc3)CC2)OC=C1c1ccc(F)cc1
Ki [2]: 6 nM | Ki (Glutamate NMDA receptor): 1690 nM | Ki (D(2) dopamine receptor): 2900 nM

O=C1CC2(CCN(CCc3ccccc3)CC2)OC=C1c1ccccc1F
Ki [2]: 1 nM | Ki (Glutamate NMDA receptor): 30000 nM | Ki (D(2) dopamine receptor): 2330 nM

O=C1CC2(CCCN(Cc3ccccc3)C2)OC=C1c1ccc(F)cc1 (single isomer, unassigned; (-))
Ki [2]: 131 nM | Ki (Glutamate NMDA receptor): > 10000 nM | Ki (D(2) dopamine receptor): 8780 nM

O=C1C[C@]2(CC[C@H](OCc3ccccc3)CC2)OC=C1c1ccccc1
Ki (Glutamate NMDA receptor): > 10000 nM | Ki (D(2) dopamine receptor): > 10000 nM

CN(C)CC1(C)CC(=O)C(c2ccccc2)=CO1 (single isomer, unassigned; (-))
Ki [1]: 352 nM | Ki (D(2) dopamine receptor): 4100 nM
